Columns and labels:
human Th17 cells = assay: IL-17 production from human Th17 cells; assay type: cell-based; settings: 144 h; IL-17A in supernatant by ELISA (MSD) after 6 days, human CD4+ T cells, anti-CD3 + anti-CD28 + cytokine cocktail
Protocol: The activity of compound of the invention can be also be determined by an IL-17 production from human Th17 cells assay. In general, this assay measures blockade of IL-17 production, the signature cytokine of T helper 17 (Th17) cells, by compounds. Purified human CD4+ T cells are stimulated with anti-CD3+anti-CD28 and incubated with a cytokine cocktail that induce their differentiation into Th17 in the absence or presence of various concentrations of compound. After 6 days, IL-17A concentration is measured in the cell culture supernatant with an ELISA kit (MSD).
Preparation of human CD4+ T cells. CD4+ T cells were purified from buffy coats from healthy donors (obtained from Massachusetts General Hospital) by negative selection the following procedure: Mixing 25 mL of blood with 1 mL of Rosette Sep CD4+ T cell enrichment cocktail (StemCell Technologies) followed by application of a layer of 14 mL Ficoll Paque Plus (Amersham GE Healthcare) and subsequent centrifugation at 1200 g for 20 min at room temperature. The Ficoll layer was then harvested and washed with phosphate saline buffer containing 2% (v/v) fetal bovine serum and cells were resuspended with RPMI medium containing 10% (v/v) fetal bovine serum and 10% (v/v) DMSO, frozen and kept in LN2 until used.
On the first day of the assay, a vial containing 10^7 CD4+ T cells is thawed rapidly in 37° C. water bath, immediately transferred into 20 mL X-Vivo 15 medium (Lonza), is spun for 6 min at 300×g, the supernatant is discarded, and the resulting pellet is re-suspended at 10^6 cells/mL in […] fresh X-Vivo 15 medium, followed by storage overnight in a tissue culture vessel in a humidified chamber at 37° C. and 5% CO2. Serial dilutions of compounds of the invention are prepared at 10× final concentration in X-Vivo15 medium containing 3% (v/v) DMSO.
On the second day of the assay, a 384-well tissue culture plate was coated with 10 μg/mL anti-hCD3 (eBioscience) at 50 μL/well. After 2 hr at 37° C., the supernatant is discarded and the coated plates are kept in a sterile tissue culture hood.
Cytokine plus anti-CD28 cocktail is prepared by mixing 25 ng/mL hIL-6 (Peprotech), 5 ng/mL hTGFbeta1 (Peprotech), 12.5 ng/mL IL-1beta (Peprotech), 25 ng/mL hIL-21, 25 ng/mL hIL-23 (R&D Systems), and 1 ug/mL anti-hCD28 (eBioscience) in X-Vivo 15 medium. The cytokine plus anti-CD28 cocktail with CD4+ cells is prepared such that the cocktail is diluted 10-fold and cell density is 0.22×10^6/mL. The mixture is incubated 1 hr at 37° C.
90 μL (20,000 cells) dispensed per well in the anti-hCD3 coated plate prepared as noted above.
10 μL 10× compound is added per well (final DMSO=0.3%) from the compound plate that was previously prepared, followed by 6 days of incubation in a tissue culture vessel in a humidified chamber at 37° C. and 5% CO2.
On day six of the assay, production of IL-17A in 10 μL of the supernatant is determined by sandwich ELISA using 384w hIL17 MSD plates following the manufacturer's protocol. Measurement is carried out in a Sector Imager 6000 by the same manufacturer. Signal units from the instrument are converted to pg/mL using a calibration curve with known amounts of IL-17A. IC50 values of test compounds (Table 2) are determined by the non-linear regression analysis of dose response curves.

[1] = molecular target: T1, RORC2 ligand binding domain (6-His-RORC2 LBD) (Homo sapiens, UniProt P51449); assay: Co-activator recruitment by TR-FRET; assay type: biochemical; settings: 6.3 nM RORC2 LBD, 200 nM SRC1-2 coactivator peptide, 3 hr room temperature
T1 construct: made in house; host or cells: E. coli
T1 sequence (P51449 269-508 limits assumed): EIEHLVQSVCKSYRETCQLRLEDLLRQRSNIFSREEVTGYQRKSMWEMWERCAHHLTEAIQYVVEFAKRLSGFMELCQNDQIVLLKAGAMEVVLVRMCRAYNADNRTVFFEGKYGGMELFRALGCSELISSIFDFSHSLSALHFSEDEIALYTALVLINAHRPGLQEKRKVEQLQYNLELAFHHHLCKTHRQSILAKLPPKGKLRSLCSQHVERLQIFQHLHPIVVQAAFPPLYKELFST
Description: The activity of compound of the invention can be determined by a co-activator recruitment by TR-FRET (time-resolved fluorescence resonance energy transfer) assay. In general, the assay is based on the interaction between N-terminally Six-Histidine-tagged-RORC2 ligand binding domain (6-His-RORC2 LBD), expressed in E. coli and purified by affinity chromatography, and biotin-coactivator peptide SRC1-2 (biotin-aminohexanoic acid-[…]-NH2; SEQ ID NO: 1) containing the LXXLL consensus domain which is responsible for receptor binding. This interaction is detected by addition of Europium labeled-anti-His antibody (Ex. 337 nm, Em. 620 nm, which binds to 6His) and Streptavidin-APC (Ex. 620 nm, Em. 665 nm, which binds to biotin). When receptor and coactivator are bound to each other, upon shining light at 337 nm on the sample, the Europium emits fluorescence that excites APC due to close proximity (FRET) and this signal is measured at 665 nm. Due to the long lasting fluorescence emission of Europium, the non-specific, short-lived fluorescence is time-resolved (TR) from the fluorescence of interest. Inhibitors of the interaction of receptor and coactivator peptide are detected by a decrease in TR-FRET signal.
Specifically, in one embodiment the aforementioned assay was performed as outlined below. The assay was carried out in black polystyrene. 384-well plates in a total assay volume of 50.5 μL. The assay buffer contained 50 mM TRIS-HCL pH 7.5, 1 mM NaCl, 2 mM MgCl2, 0.5 mg/mL bovine serum albumin, and 5 mM dithiothreitol. The final concentration of reagents was 6.3 nM RORC2 LBD, 200 nM SRC1-2, 50 nM streptavidin APC, 1 nM Europium-labeled anti-His antibody, and varying concentrations of compounds such that final concentration of DMSO is 1% (v/v). The assay steps were: (1) dispensing […] compound at 100× final concentration in DMSO (test wells) or DMSO only (control wells for no inhibition); and (2) dispensing 50 μL mixture of the other assay components including receptor (test wells) or excluding receptor (control wells for maximal inhibition).
Assay mixtures were incubated are room temperature for 3 hr and read in EnVision 2100 Multilabel Reader (PerkinElmer Life Sciences) at Excitation Filter 320, Emission Europium Filter 615, Emission APC Filter 665, Dichroic Mirror D400/D630.
TR-FRET signal was determined by calculating the ratio of 665 nm by 615 nm and […] values of compounds of the invention (Table 1) were determined by the non-linear regression analysis of dose response curves.

Compound | IC50 (human Th17 cells) | IC50 [1]
COc1ccc(C(=O)Nc2cnc3c(c(C4CCN(C(=O)C(C)C)CC4)cn3C)c2OC)cc1C#N [Example 2, 3-cyano-N-(3-(1-isobutyrylpiperidin-4-yl)-4-methoxy-1-methyl-1H-pyrrolo[2,3-b]pyridin-5-yl)-4-methoxybenzamide] | 17.8 nM | 38.7 nM
COc1ccc(C(=O)Nc2cnc3c(c(C4CCN(C(=O)[C@@H](C)C(C)(C)C)CC4)cn3C)c2OC)cc1C#N [Example 3, (S)-3-cyano-4-methoxy-N-(4-methoxy-1-methyl-3-(1-(2,3,3-trimethylbutanoyl)piperidin-4-yl)-1H-pyrrolo[2,3-b]pyridin-5-yl)benzamide] | 6.4 nM | 4.6 nM
COc1ccc(C(=O)Nc2cnc3c(c(C4CCN(C(=O)[C@H](C)C(C)(C)C)CC4)cn3C)c2OC)cc1C#N [Example 4, (R)-3-cyano-4-methoxy-N-(4-methoxy-1-methyl-3-(1-(2,3,3-trimethylbutanoyl)piperidin-4-yl)-1H-pyrrolo[2,3-b]pyridin-5-yl)benzamide] | 11 nM | 6.9 nM
COc1c(NC(=O)c2cccc(C#N)c2)cnc2c1c(C1CCN(C(=O)[C@H](C)C(C)(C)C)CC1)cn2C [Example 5, (R)-3-cyano-N-(4-methoxy-1-methyl-3-(1-(2,3,3-trimethylbutanoyl)piperidin-4-yl)-1H-pyrrolo[2,3-b]pyridin-5-yl)benzamide] | 10.6 nM | 6.1 nM
COc1c(NC(=O)c2cccc(C#N)c2)cnc2c1c(C1CCN(C(=O)[C@H](C)C(C)C)CC1)cn2C [Example 6, (R)-3-cyano-N-(3-(1-(2,3-dimethylbutanoyl)piperidin-4-yl)-4-methoxy-1-methyl-1H-pyrrolo[2,3-b]pyridin-5-yl)benzamide] | 15.7 nM | 15.2 nM
COc1c(NC(=O)c2cccc(C#N)c2)cnc2c1c(C1CCN(C(=O)c3cccc4c3CCC4)CC1)cn2C [Example 7, 3-cyano-N-(3-(1-(2,3-dihydro-1H-indene-4-carbonyl)piperidin-4-yl)-4-methoxy-1-methyl-1H-pyrrolo[2,3-b]pyridin-5-yl)benzamide] | 28.3 nM | 4.7 nM
COc1c(NC(=O)c2cccc(C#N)c2)cnc2c1c(C1CCN(C(=O)C3CCCC3)CC1)cn2C [Example 8, 3-cyano-N-(3-(1-(cyclopentanecarbonyl)piperidin-4-yl)-4-methoxy-1-methyl-1H-pyrrolo[2,3-b]pyridin-5-yl)benzamide] | 29.8 nM | 11.8 nM
COc1cc(C#N)cc(C(=O)Nc2cnc3c(c(C4CCN(C(=O)C[C@@H](O)C(F)(F)F)CC4)cn3C)c2OC)c1 [Example 9, (R)-3-cyano-5-methoxy-N-(4-methoxy-1-methyl-3-(1-(4,4,4-trifluoro-3-hydroxybutanoyl)piperidin-4-yl)-1H-pyrrolo[2,3-b]pyridin-5-yl)benzamide] | 77.1 nM | 56.2 nM
COc1c(NC(=O)c2ccc(F)c(C#N)c2)cnc2c1c(C1CCN(C(=O)C3CCCC3)CC1)cn2C [Example 10, 3-cyano-N-(3-(1-(cyclopentanecarbonyl)piperidin-4-yl)-4-methoxy-1-methyl-1H-pyrrolo[2,3-b]pyridin-5-yl)-4-fluorobenzamide] | 106 nM | 29.2 nM
COc1c(NC(=O)c2ccc(C)c(C#N)c2)cnc2c1c(C1CCN(C(=O)C3CCCC3)CC1)cn2C [Example 11, 3-cyano-N-(3-(1-(cyclopentanecarbonyl)piperidin-4-yl)-4-methoxy-1-methyl-1H-pyrrolo[2,3-b]pyridin-5-yl)-4-methylbenzamide] | 50.7 nM | 17.8 nM
COc1cc(C#N)cc(C(=O)Nc2cnc3c(c(C4CCN(C(=O)C5CCCC5)CC4)cn3C)c2OC)c1 [Example 12, 3-cyano-N-(3-(1-(cyclopentanecarbonyl)piperidin-4-yl)-4-methoxy-1-methyl-1H-pyrrolo[2,3-b]pyridin-5-yl)-5-methoxybenzamide] | 59.8 nM | 20.2 nM
COc1ccc(C(=O)Nc2cnc3c(c(C4CCN(C(=O)C5CCCCC5)CC4)cn3C)c2OC)cc1C#N [Example 13, 3-cyano-N-(3-(1-(cyclohexanecarbonyl)piperidin-4-yl)-4-methoxy-1-methyl-1H-pyrrolo[2,3-b]pyridin-5-yl)-4-methoxybenzamide] | 9.5 nM | 15.4 nM
COc1c(NC(=O)c2cccc(C#N)c2)cnc2c1c(C1CCN(C(=O)[C@@H](C)C(C)C)CC1)cn2C [Example 14, (S)-3-cyano-N-(3-(1-(2,3-dimethylbutanoyl)piperidin-4-yl)-4-methoxy-1-methyl-1H-pyrrolo[2,3-b]pyridin-5-yl)benzamide] | 42.1 nM | 14.2 nM
COc1c(NC(=O)c2cccc(C#N)c2)cnc2c1c([C@@H]1[C@@H]3CC[C@H]1CN(C(=O)[C@H](C)C(C)(C)C)C3)cn2C [Example 21, 3-cyano-N-(4-methoxy-1-methyl-3-((1R,5S,8R)-3-((R)-2,3,3-trimethylbutanoyl)-3-azabicyclo[3.2.1]octan-8-yl)-1H-pyrrolo[2,3-b]pyridin-5-yl)benzamide] | 21.3 nM | –
COc1ccc(C(=O)Nc2cnc3c(c([C@@H]4[C@@H]5CC[C@H]4CN(C(=O)C4CCCC4)C5)cn3C)c2OC)cc1C#N [Example 22, 3-cyano-N-(3-((1R,5S,8r)-3-(cyclopentanecarbonyl)-3-azabicyclo[3.2.1]octan-8-yl)-4-methoxy-1-methyl-1H-pyrrolo[2,3-b]pyridin-5-yl)-4-methoxybenzamide] | 22.7 nM | –

— US10336748B2, “Methyoxy-substituted pyrrolopyridine modulators of RORC2 and methods of use thereof” (Pfizer Inc., priority 2015, dated 2019)
